{"source": "BindingDB's records for doi:10.1124/jpet.104.065391", "about": "(University of Arizona, 2004)", "key": {"Mu-type opioid receptor": {"molecular_target": "Mu-type opioid receptor (Homo sapiens, UniProt P35372)", "sequence (P35372 whole entry)": "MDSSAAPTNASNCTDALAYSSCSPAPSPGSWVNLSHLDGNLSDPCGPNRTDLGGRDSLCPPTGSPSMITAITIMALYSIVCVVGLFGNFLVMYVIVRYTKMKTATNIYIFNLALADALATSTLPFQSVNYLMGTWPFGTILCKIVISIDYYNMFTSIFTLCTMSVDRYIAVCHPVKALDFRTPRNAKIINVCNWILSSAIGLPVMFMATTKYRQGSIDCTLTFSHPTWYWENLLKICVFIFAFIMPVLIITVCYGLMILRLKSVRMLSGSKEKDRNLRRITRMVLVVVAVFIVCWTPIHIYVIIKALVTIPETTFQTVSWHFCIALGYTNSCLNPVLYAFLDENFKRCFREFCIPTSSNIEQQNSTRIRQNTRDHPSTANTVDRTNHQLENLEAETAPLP"}, "[1]": {"molecular_target": "Kappa-type opioid receptor (Homo sapiens, UniProt P41145)", "sequence (P41145 whole entry)": "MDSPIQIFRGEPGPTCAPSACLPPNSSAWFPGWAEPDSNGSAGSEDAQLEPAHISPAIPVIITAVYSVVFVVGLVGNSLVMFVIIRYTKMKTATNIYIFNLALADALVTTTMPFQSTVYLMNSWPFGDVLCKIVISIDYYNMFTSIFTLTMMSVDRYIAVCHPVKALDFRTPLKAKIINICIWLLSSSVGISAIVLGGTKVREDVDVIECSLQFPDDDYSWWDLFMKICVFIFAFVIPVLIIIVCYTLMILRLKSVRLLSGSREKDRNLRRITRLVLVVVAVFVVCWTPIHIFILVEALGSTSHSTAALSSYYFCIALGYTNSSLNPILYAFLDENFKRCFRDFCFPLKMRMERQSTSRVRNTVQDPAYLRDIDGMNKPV"}}, "note": "Where a SMILES comes first, the peptide text is derived from it. [ ]: non-standard residue; d: D form. dNle = CCCC[C@@H](N)C(=O)O", "data": [{"smiles": "CCCC[C@@H](NC(=O)[C@@H](Cc1ccccc1)NC(=O)[C@H](N)Cc1ccccc1)C(=O)N[C@H](CCCNC(=N)N)C(N)=O", "note": "[d-Phe-d-Phe-d-Nle-d-Arg-NH2] (H-[dF][dF][dNle][dR]-NH2)", "values": [{"measurement": "Ki", "setting": "Mu-type opioid receptor", "value": 4570, "unit": "nM"}, {"measurement": "Ki", "setting": "[1]", "value": 0.146, "unit": "nM"}]}]}
